Data reported in patent publication US11999806B2, “Broad-spectrum polypeptide against enterovirus and application thereof” (WUHAN INSTITUTE OF VIROLOGY, CHINESE ACADEMY OF SCIENCES, priority 2018, dated 2024).
Several values for one entry are separate records, joined by “and”; a condition that tells them apart may be missing. Equal values may be shown once. Read-outs that look alike come from different tables or passages of the source. Non-standard residues stand in square brackets, D forms with d. Residues, ends and D or L forms follow the SMILES beside them. No end group written: not given here.

Test system: EV71
Assay type: cell-based, enterovirus 71
Conditions: RD cells, EV71 0.1 MOI, 24 h; for IC50: read-out: IC50 against EV71 by CCK8 method; for Virus inhibition rate (%): CCK-8
Experimental: • (1) 293T cells were plated in a 24-well cell plate. • (2) After the cells reached 70%-80% confluence, the MEM medium containing 10% serum was replaced with a MEM medium containing 2% serum (0.5 ml/well), and 5 μl of 10^6 PFU/mL EV71 virus per well was added. • (3) After 1 hour, polypeptides P2, 3A-TAT-EP, 3A-EP-DRI and 3A-EP-PEG-PA were added at a final concentration of 0.01 μM, 0.1 μM, 1 μM, and 10 μM, respectively. • (4) Samples were collected 24 hours after virus infection, and RNA was extracted with a total RNA extraction kit. • (5) The supernatant in each well was discarded, then 350 μl of TRK Lysis Buffer was added to the well and the plate was shaken on the shaker for 5 minutes. • (6) 350 μl of 70% ethanol (DEPC-treated) was added to the well and the plate was shaken on the shaker for 5 minutes. • (7) The mixture in the well was transferred to a RNA extraction column and centrifuged at 12000 g for 1 min. • (8) The solution collected in the recovery tube was added back to the column and centrifuged at 12,000 g for 1 min. • (9) RNA washing buffer 1 was added to the column and centrifuged at 12,000 g for 30 s. • (10) RNA washing buffer 2 was added to the column and centrifuged at 12,000 g for 1 min. • (11) Step (10) was repeated once. • (12) The empty column was centrifuged at 12,000 g for 2 min to completely remove residual RNA washing buffer. • (13) 50 μl DEPC-treated water was added to the column and centrifuge at 12000 g for 2 min. • (14) 2 μl RNA sample was used according to one step qRT-PCR kit for fluorescence quantification experiment. 3. […] Each concentration was tested in triplicate. • (3) The diluted virus solution was added to the plate of step (1), 100 μL per well with the final virus concentration was 0.1 MOI. Wells without polypeptide and virus (well without treatment), wells with virus only were used as controls. • (4) The mixture of step (2) was added to the 96-well plate plated with cells in step (1) and incubated in 5% CO2 at 37° C. for 24 h. Then CCK8 kit was used to determine the inhibitory effect of the polypeptide on virus. • (5) The inhibition rate of different concentrations of polypeptides on viral infection was calculated using the following formula: OD means the value of OD450-OD630, inhibition rate=(OD well with treatment−OD well with virus only)×100%/(OD well without treatment−OD well with virus only)
• (1) RD cells in good growth state were plated in a 96-well plate. • (2) After the cells reached 70%-80% confluence, the MEM medium containing 10% serum was replaced with a MEM medium containing 2% serum. Group without polypeptide and virus, and group with virus but without polypeptide were included as controls. The final virus concentration was 0.1 MOI. • (3) 1 h later, polypeptide CR at a final concentration of 5 μM, 2.5 μM, 1.25 μM, 0.625 μM, 0.3125 μM, and 0.15625 μM was added, respectively. Group without polypeptide and virus, and group with virus but without polypeptide were set as controls. • (4) 24 hours after virus infection, when the change in the control group with only virus was obvious, 10 μl of viable cell detection agent CCK-8 was added to each well and mixed well. • (5) The plate was incubated at 37° C. for 2 h. • (6) The absorbance value at OD450 was measured with a microplate reader. Inhibition rate of polypeptide=(OD well with treatment−OD well with virus only)×100%/(OD well without treatment−OD well with virus only), OD refers to the value of OD450-OD630.
• (1) RD cells in good growth state were plated in a 96-well plate. • (2) After the cells reached 70%-80% confluence, the MEM medium containing 10% serum was replaced with a MEM medium containing 2% serum. Group without polypeptide and virus, and group with virus but without polypeptide were included as controls. The final virus concentration was 0.1 MOI. • (3) 1 h later, polypeptide CR at a final concentration of 2.5 μM, 1.25 μM, 0.625 μM, 0.3125 μM, and 0.15625 μM was added, respectively. […]

Compound	IC50	Virus inhibition rate (%) (0.625 μM)	Virus inhibition rate (%) (1.25 μM)	Virus inhibition rate (%) (2.5 μM)
CC[C@@H](C)[C@@H](NC(=O)[C@H]1CCCN1C(C)=O)C(=O)N[C@@H](C(=O)N[C@H](Cc1c[nH]c2ccccc12)C(=O)NCC(=O)N[C@H](CCC(N)=O)C(=O)N[C@H](CCC(=O)O)C(=O)N[C@H](CCCNC(=N)N)C(=O)N[C@H](CS)C(=O)N[C@H](Cc1ccc(O)cc1)C(=O)N[C@H](CCC(N)=O)C(=O)N[C@H](CCCNC(=N)N)C(=O)N[C@@H](C(=O)N[C@H](CCC(=O)O)C(=O)N[C@H](CCC(=O)O)C(=O)N1CCC[C@@H]1C(=O)N1CCC[C@@H]1C(=O)N[C@H](CCCNC(=N)N)C(=O)N[C@H](CCCNC(=N)N)C(=O)N[C@H](CCCNC(=N)N)C(=O)N[C@H](CCC(N)=O)C(=O)N[C@H](CCCNC(=N)N)C(=O)N[C@H](CCCNC(=N)N)C(=O)N[C@H](CCCCN)C(=O)N[C@H](CCCCN)C(=O)N[C@H](CCCNC(=N)N)C(=O)NCC(=O)N[C@H](Cc1ccc(O)cc1)C(N)=O)C(C)C)[C@H](C)CC [3A-EP-DRI]	3560 nM	–	–	–
CC(=O)N[C@H](CCCNC(=N)N)C(=O)N[C@H](CS)C(=O)N[C@H](Cc1ccc(O)cc1)C(=O)N[C@H](CCC(N)=O)C(=O)N[C@H](CCCNC(=N)N)C(=O)N[C@@H](C(=O)N[C@H](CCC(=O)O)C(=O)N[C@H](CCC(=O)O)C(=O)N1CCC[C@@H]1C(=O)N1CCC[C@@H]1C(=O)N[C@H](CCCNC(=N)N)C(=O)N[C@H](CCCNC(=N)N)C(=O)N[C@H](CCCNC(=N)N)C(=O)N[C@H](CCC(N)=O)C(=O)N[C@H](CCCNC(=N)N)C(=O)N[C@H](CCCNC(=N)N)C(=O)N[C@H](CCCCN)C(=O)N[C@H](CCCCN)C(=O)N[C@H](CCCNC(=N)N)C(=O)NCC(=O)N[C@H](Cc1ccc(O)cc1)C(N)=O)C(C)C [ER-DRI] (Ac-[dR][dC][dY][dQ][dR][dV][dE][dE][dP][dP][dR][dR][dR][dQ][dR][dR][dK][dK][dR]G[dY]-NH2)	640 nM	37.8% and 40.47% and 37.95%	75.85% and 72.43% and 77.52%	78.68% and 85.29% and 79.76%
YGRKKRRQRRRGSGEEVRQYCR [ER]	1260 nM	–	–	–
